Reference: PMC7864049, “Co-crystal structures of HIV TAR RNA bound to lab-evolved proteins show key roles for arginine relevant to the design of cyclic peptide TAR inhibitors” (The Journal of Biological Chemistry, 2021)
Entries after “also recorded” stand apart in the source; their conditions may differ. Read-outs that look alike come from different tables or passages of the source.

Tests used:
HIV-1 TAR RNA (27-mer) = type: binding
[1] = tested on: Tat ARM binding to HIV-1 TAR RNA
[2] = tested on: Tat ARM binding to HIV-1 TAR RNA; remark: listed apart in the source
HIV TAR RNA = settings: cited from earlier work
Excerpt: (§1) The precise role of arginine in Tat-mediated RNA recognition came into focus only recently based on the high-resolution NMR analysis of an HIV Tat-ARM in complex with human 7SK RNA and HIV TAR RNA ([19]). When bound to host 7SK, Tat adopts a bent conformation wherein a cluster of three arginines specifically recognizes the Hoogsteen edges of guanine nucleobases. Conversely, the Tat-ARM adopts a more linear conformation that uses two arginines to recognize the Hoogsteen edges of TAR nucleobases. Remarkably, these different modes of base recognition use distinctive arginines from the same Tat pe ...

human 7SK RNA = settings: cited from earlier work
Excerpt: as §1

Ac-GISYGRKKRRQRRRAHQ-NH2 [Tat ARM, reference compound]
Kd (HIV-1 TAR RNA (27-mer)): 166 ± 21 nM | ΔG° (HIV-1 TAR RNA (27-mer)): -9.2 ± 0.1 kcal/mol | ΔH° (HIV-1 TAR RNA (27-mer)): −4.5 ± 0.6 kca/mol | −TΔS° (HIV-1 TAR RNA (27-mer)): -4.8 ± 0.7 kcal/mol | Kd (HIV-1 TAR RNA (27-mer); 20 °C): 135 ± 31 nM | heats of binding of Tat ARM [1]: no significant heats of binding; also recorded: no appreciable heats of binding | Tat binding mode in presence of TB-LP-6.9 [2]: non- identical two- site binding | affinity (HIV TAR RNA): nanomolar affinity | affinity (human 7SK RNA): nanomolar affinity
